Experimental data taken from patent publication US7163946B2 (Ligand Pharmaceuticals Incorporated, priority 2002, dated 2007).
Like-named read-outs stand apart in the source and are kept apart here.

Legend:
hPR [1] = target: T1, hPR (Homo sapiens, UniProt P06401); assay: T47D alkaline phosphatase assay, agonist mode; type: cell-based; conditions: T47D human breast cancer cells; for Emax: T47D, read-out: hPR Agonist T47D cells Eff. (%)
T1 sequence (P06401 679-933 limits assumed): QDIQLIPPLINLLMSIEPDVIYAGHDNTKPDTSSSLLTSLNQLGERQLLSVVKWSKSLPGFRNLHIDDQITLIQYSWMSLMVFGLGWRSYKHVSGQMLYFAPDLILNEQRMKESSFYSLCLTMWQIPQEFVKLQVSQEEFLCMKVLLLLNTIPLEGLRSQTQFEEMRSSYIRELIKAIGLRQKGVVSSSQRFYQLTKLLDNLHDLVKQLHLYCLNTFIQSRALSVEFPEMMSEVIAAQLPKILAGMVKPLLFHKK

hPR [2] = target: T2, hPR (Homo sapiens, UniProt P06401); assay: hPR cotransfection assay in CV-1 cells, agonist mode; type: cell-based; conditions: for Emax: CV-1, CV-1 cells, read-out: hPR Agonist CV-1 Cells Eff. (%); for Emax / hPR Agonist CV-1 Cells Eff. (%): relative to maximal response of progesterone as 100%
T2 sequence (P06401 1-933): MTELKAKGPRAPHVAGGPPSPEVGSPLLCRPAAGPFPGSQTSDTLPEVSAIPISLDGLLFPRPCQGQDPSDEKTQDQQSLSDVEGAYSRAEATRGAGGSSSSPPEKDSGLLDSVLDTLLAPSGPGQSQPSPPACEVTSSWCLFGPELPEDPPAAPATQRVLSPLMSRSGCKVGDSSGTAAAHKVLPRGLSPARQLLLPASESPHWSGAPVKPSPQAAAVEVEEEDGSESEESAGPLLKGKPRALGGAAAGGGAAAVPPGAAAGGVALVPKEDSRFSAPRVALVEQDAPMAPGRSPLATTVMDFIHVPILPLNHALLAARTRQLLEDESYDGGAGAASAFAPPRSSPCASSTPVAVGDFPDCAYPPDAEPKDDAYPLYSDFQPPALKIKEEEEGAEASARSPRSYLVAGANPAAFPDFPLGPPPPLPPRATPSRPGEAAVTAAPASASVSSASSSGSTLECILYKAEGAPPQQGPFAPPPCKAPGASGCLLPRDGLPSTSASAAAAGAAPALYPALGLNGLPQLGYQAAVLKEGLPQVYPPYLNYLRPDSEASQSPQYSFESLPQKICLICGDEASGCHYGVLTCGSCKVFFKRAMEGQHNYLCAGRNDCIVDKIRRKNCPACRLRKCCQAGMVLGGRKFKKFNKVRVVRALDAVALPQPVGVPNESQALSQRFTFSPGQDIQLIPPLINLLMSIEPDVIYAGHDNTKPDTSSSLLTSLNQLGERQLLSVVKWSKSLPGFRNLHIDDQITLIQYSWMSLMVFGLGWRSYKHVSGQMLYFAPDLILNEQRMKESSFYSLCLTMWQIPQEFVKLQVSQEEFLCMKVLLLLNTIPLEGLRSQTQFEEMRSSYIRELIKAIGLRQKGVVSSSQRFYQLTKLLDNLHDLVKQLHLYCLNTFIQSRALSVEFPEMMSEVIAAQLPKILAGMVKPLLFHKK

hPR [3] = target: T1, hPR; assay: T47D alkaline phosphatase assay, antagonist mode; type: cell-based; conditions: T47D human breast cancer cells; for Emax: read-out: hPR Antagonists T47D Cells Eff. (%); for IC50: read-out: hPR Antagonists T47D Cells IC50
hPR [4] = target: T2, hPR; assay: hPR cotransfection assay in CV-1 cells, antagonist mode; type: cell-based; conditions: for Emax: CV-1, CV-1 cells, read-out: hPR Antagonist CV-1 Cells Eff. (%); for Emax / hPR Antagonist CV-1 Cells Eff. (%): maximal inhibition of reference agonist at EC50 concentration; for IC50 / hPR Antagonist CV-1 Cells Eff. (%): CV-1 cells
hPR-A = target: T3, hPR-A (Homo sapiens, UniProt P06401); assay: Receptor competitive binding assay; conditions: read-out: PR binding Ki
T3 sequence (P06401 1-769 isoform P06401-2): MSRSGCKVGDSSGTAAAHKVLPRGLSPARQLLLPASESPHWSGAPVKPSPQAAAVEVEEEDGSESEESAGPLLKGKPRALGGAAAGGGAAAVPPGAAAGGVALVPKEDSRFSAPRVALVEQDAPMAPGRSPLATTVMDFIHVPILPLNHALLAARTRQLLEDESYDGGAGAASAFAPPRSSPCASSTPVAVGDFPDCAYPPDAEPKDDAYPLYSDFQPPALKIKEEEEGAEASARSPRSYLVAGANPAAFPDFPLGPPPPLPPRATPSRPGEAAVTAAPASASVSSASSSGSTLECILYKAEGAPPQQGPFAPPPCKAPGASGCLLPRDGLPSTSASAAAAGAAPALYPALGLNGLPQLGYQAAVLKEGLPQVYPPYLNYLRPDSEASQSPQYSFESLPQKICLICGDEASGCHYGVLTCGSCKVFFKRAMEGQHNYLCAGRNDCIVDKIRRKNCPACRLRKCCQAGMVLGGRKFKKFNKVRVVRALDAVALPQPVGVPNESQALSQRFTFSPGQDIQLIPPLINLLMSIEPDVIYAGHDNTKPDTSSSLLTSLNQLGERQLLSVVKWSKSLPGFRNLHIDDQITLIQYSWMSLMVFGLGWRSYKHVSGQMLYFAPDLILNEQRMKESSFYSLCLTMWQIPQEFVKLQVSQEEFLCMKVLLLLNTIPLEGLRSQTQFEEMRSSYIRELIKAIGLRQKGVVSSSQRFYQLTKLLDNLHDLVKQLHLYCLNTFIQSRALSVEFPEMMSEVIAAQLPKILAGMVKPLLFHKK

immature rabbits = assay: McPhail (Clauberg) rabbit assay of progestational activity; type: in vivo; conditions: Oryctolagus cuniculus; estradiol-primed immature rabbits; glandular changes of the uterus; read-out: potency (MAD in mg/kg), minimum active dose
Procedure: The superiority of the 7,9-difluoro analogue compounds of the present invention was further characterized utilizing the McPhail rabbit model according to the following illustrative Examples. The Clauberg or McPhail assay is a classic assay utilizing rabbits to measure progestational activity. […] In this assay, immature rabbits are treated initially with estradiol, which induces growth in the uterus. This is followed by a progestin, which causes a large change in the glandular content of the uterus. It is this change in the glandular component which is a measure of the progestational activity of a progestin. The measurement of these glandular changes is carried out histologically using stained sections of the uterus. The in vivo comparison between the new 7,9-difluoro compounds and analogues with substitution patterns different from 7,9-difluoro (U.S. Pat. Nos. 5,693,646 and 5,696,127) is tabulated in Tables 7 and 8. The in vivo potency of the progestins is presented as the minimum active dose (MAD).

[5] = tested on: ovariectomized female rats; assay: Multi-endpoint adult rat model, uterus/breast tissue-selectivity; type: in vivo; conditions: ratio of relative efficacy to MPA in uterus verse in breast tissue at the same highest dose tested; estrone-treated ovariectomized rats, three days
hPR [6] = target: T2, hPR; conditions: read-out: hPR agonist potencies (EC50 in nM) in the cotransfection assay, cited from earlier work
[7] = CV-1 cells, read-out: hPR Agonist CV-1 Cells EC50
[8] = Tables 3 and 4, values without footnote, read-out: hPR agonist potencies (EC50 in nM) in the cotransfection assay
[9] = footnote b: EC50 data from J. Med. Chem. 41 (1998), 291 and 303

EC50 (hPR [1]) [nM]	EC50 (hPR [2]; [7]) [nM]	IC50 (hPR [4]) [nM]	Ki (hPR-A) [nM]	SMILES	minimal effective dose (immature rabbits) [mg/kg]	uterus/breast tissue-selectivity [5]	further results
315	> 10000	75	37	COC1Oc2c(F)cc(F)cc2-c2ccc3c(c21)C(C)=CC(C)(C)N3 (racemic) [Compound 32, (±)-7,9-difluoro-5-methoxy-1,2-dihydro-2,2,4-trimethyl-5H-chromeno[3,4-f]quinoline]			Emax (hPR [1]): 36%; Emax (hPR [2]): < 20%; Emax (hPR [3]): 35%; IC50 (hPR [3]): 250 nM; Emax (hPR [4]): 76%
195	> 10000	42	18	CC1=CC(C)(C)Nc2ccc3c(c21)C(CC(=O)c1ccccc1)Oc1c(F)cc(F)cc1-3 (racemic) [Compound 45, (±)-7,9-difluoro-5-(2-oxo-2-phenylethyl)-1,2-dihydro-2,2,4-trimethyl-5H-chromeno[3,4-f]quinoline]			Emax (hPR [1]): 77%; Emax (hPR [2]): < 20%; Emax (hPR [3]): < 20%; IC50 (hPR [3]): > 10000 nM; Emax (hPR [4]): 79%
				C#CCC1Oc2c(F)cc(F)cc2-c2ccc3c(c21)C(C)=CC(C)(C)N3 (racemic) [Compound 71, (±)-7,9-difluoro-5-(2-propynyl)-1,2-dihydro-2,2,4-trimethyl-5H-chromeno[3,4-f]quinoline]	< 0.5		
6.2	1.2	> 10000	2	CC1=CC(C)(C)Nc2ccc3c(c21)C(c1ccc(Cl)c(C)c1)Oc1c(F)cc(F)cc1-3 (single isomer, unassigned; (-)) [Compound 38, (−)-7,9-difluoro-5-(4-chloro-3-methylphenyl)-1,2-dihydro-2,2,4-trimethyl-5H-chromeno[3,4-f]quinoline]	0.25	2.8	hPR Agonist T47D cells Eff. (%) (hPR [1]): 54%; hPR Agonist CV-1 Cells Eff. (%) (hPR [2]; CV-1 cells): 110%; hPR Antagonist CV-1 Cells Eff. (%) (hPR [4]): na (na = not active (i.e. efficacy of <20 and potency of >10,000))
				CC1=CC(C)(C)Nc2ccc3c(c21)C(c1cc2ccccc2s1)Oc1c(F)cc(F)cc1-3 (single isomer, unassigned; (-)) [Compound 64, (−)-7,9-difluoro-5-(benzo[b]thien-2-yl)-1,2-dihydro-2,2,4-trimethyl-5H-chromeno[3,4-f]quinoline]	0.25	2.8	
				CC#CC1Oc2c(F)cc(F)cc2-c2ccc3c(c21)C(C)=CC(C)(C)N3 (single isomer, unassigned; (-)) [Compound 75, (−)-7,9-difluoro-5-(1-propynyl)-1,2-dihydro-2,2,4-trimethyl-5H-chromeno[3,4-f]quinoline]	< 0.5	4.2	
				CC1=CC(C)(C)Nc2ccc3c(c21)/C(=C/c1ccccc1F)Oc1c(F)cc(F)cc1-3 [Compound 12, 7,9-difluoro-5(Z)-(2-fluorobenzylidene)-1,2-dihydro-2,2,4-trimethyl-5H-chromeno[3,4-f]quinoline]	0.5		EC50 (hPR [2]; [8]): 2.55 nM
79	9.4	> 10000	58	CC1=CC(C)(C)Nc2ccc3c(c21)/C(=C/C#N)Oc1c(F)cc(F)cc1-3 [Compound 24, 7,9-difluoro-5(Z)-cyanomethylidene-1,2-dihydro-2,2,4-trimethyl-5H-chromeno[3,4-f]quinoline]			Emax (hPR [1]): 72%; Emax (hPR [2]): 52%; Emax (hPR [3]): 26%; IC50 (hPR [3]): 830 nM; Emax (hPR [4]): < 20%
				CC1=CC(C)(C)Nc2ccc3c(c21)C(c1ccc(Cl)c(C)c1)Oc1ccc(F)cc1-3 (stereo not drawn) [Formula I X=9-F 4-Cl-3-Me-Ph, reference compound]	1		
				CC1=CC(C)(C)Nc2ccc3c(c21)C(c1cccc(C(F)(F)F)c1)Oc1ccccc1-3 (stereo not drawn) [Formula I X=H 3-CF3-Ph, reference compound]		3.5	
				CC1=CC(C)(C)Nc2ccc3c(c21)C(c1cccc(F)c1)Oc1ccccc1-3 (stereo not drawn) [Formula I X=H 3-F-Ph]			EC50 (hPR [6]; footnote a: EC50 data from U.S. Pat. Nos. 5693646/5693647/5696127): 9 nM
				CC1=CC(C)(C)Nc2ccc3c(c21)C(c1ccc(Cl)cc1)Oc1ccccc1-3 (stereo not drawn) [Formula I X=H 4-Cl-Ph, reference compound]		1.5	
				CC1=CC(C)(C)Nc2ccc3c(c21)/C(=C/c1cccc(F)c1)Oc1ccc(F)cc1-3 [Formula II X=9-F 3-F-Ph, reference compound]		2.2	EC50 (hPR [2]; [8]): 7 nM
				CC1=CC(C)(C)Nc2ccc3c(c21)C(=Cc1cc(F)ccc1F)Oc1ccccc1-3 [Formula II X=H 2,5-diF-Ph]			EC50 (hPR [6]; [9]): 14.7 nM
				CC1=CC(C)(C)Nc2ccc3c(c21)C(=Cc1ccccc1Cl)Oc1ccccc1-3 [Formula II X=H 2-Cl-Ph]			EC50 (hPR [6]; [9]): 57.8 nM

SMILES	EC50 (hPR [1]) [nM]	EC50 (hPR [2]; [7]) [nM]	IC50 (hPR [4]) [nM]	Ki (hPR-A) [nM]	minimal effective dose (immature rabbits) [mg/kg]	uterus/breast tissue-selectivity [5]	further results
C#C[C@]1(O)CC[C@H]2[C@@H]3CCC4=CC(=O)CC[C@@H]4[C@H]3C(=C)C[C@@]21CC [3-ketodesogestrel, reference compound]	0.2	0.1	> 10000	0.3			hPR Agonist T47D cells Eff. (%) (hPR [1]): 94%; hPR Agonist CV-1 Cells Eff. (%) (hPR [2]; CV-1 cells): 190%; hPR Antagonists T47D Cells Eff. (%) (hPR [3]): na (na = not active (i.e. efficacy of <20 and potency of >10,000)); IC50 (hPR [3]): > 10000 nM; hPR Antagonist CV-1 Cells Eff. (%) (hPR [4]): na (na = not active (i.e. efficacy of <20 and potency of >10,000))
